Laboratory results: patent US5944026A, “Tobacco products or materials resembling tobacco products containing natural substances having an antioxidative effect and processes for the preparation thereof” (priority 1994, dated 1999)
Like-named read-outs stand apart in the source and are kept apart here.

Key:
[1] = test system: Salmonella typhimurium, strain TA 98; assay: Ames test (TA98): antimutagenic effect of added substances on mutagenicity of cigarette smoke condensate; format: cell-based; conditions: graphical representation in figure
Protocol: To detect this antimutagenic action, the Ames test (loc.cit.) was carried out as a meaningful rapid test.
It was ensured in this process that work was carried out in a concentration range which was not toxic for the bacteria.

[2] = Solubility of aromatic substances and the vitamins A and E in filter hardeners; conditions: for solubility in hardener TEGDA: hardener: TEGDA (triethylene glycol diacetate)
[3] = Solubility/miscibility of aromatic substances, vitamins A and E and β-carotene in natural substances used as solvents; format: physicochemical
[4] = test system: Salmonella typhimurium, strain TA 98; assay: Ames test with S9 activation: smoke condensate of experimental cigarettes with cloves, cinnamon sticks or eugenol; format: cell-based; conditions: additions to cut tobacco
Protocol: Five versions of filter cigarettes which differ in the composition of the final mixture according to Table 6 and have the same tobacco base mixture were prepared in the same format and same cigarette weight (940 mg). The cloves or cinnamon sticks employed were moistened with steam, rolled and cut before mixing with tobacco.
The experimental cigarettes were smoked under standard conditions (see Example 1).

COc1cc(/C=C/C(=O)CC(=O)/C=C/c2ccc(O)c(OC)c2)ccc1O [curcumin, Curcumin]
mutagenicity of cigarette smoke condensate on addition of the substance [1]: reduction of the mutagenicity

Cc1c(C)c2c(c(C)c1OC(=O)CCC(=O)O)CC[C@@](C)(CCC[C@H](C)CCC[C@H](C)CCCC(C)C)O2 [Vitamin E succinate, tocopherol succinate]
solubility in hardener TEGDA [2]: < 1 % by weight
solubility in hardener eugenol [2]: 10 % by weight
solubility in hardener triacetin [2]: < 1 % by weight
solubility in cinnamaldehyde as a solvent ([3]; solvent: cinnamaldehyde): > 10 % by weight
solubility in eugenol as a solvent [3]: > 10 % by weight
solubility in jasminealdehyde as a solvent ([3]; solvent: jasminealdehyde): > 10 % by weight

Cc1ccc2oc(=O)ccc2c1 [6-Methylcoumarin]
solubility in cinnamaldehyde as a solvent [3]: > 10 % by weight
solubility in jasminealdehyde as a solvent [3]: > 10 % by weight

CCOc1cc(C=O)ccc1O [Ethylvanillin]
solubility in hardener TEGDA [2]: > 10 % by weight
solubility in hardener eugenol [2]: > 10 % by weight
solubility in hardener triacetin [2]: > 10 % by weight
solubility in cinnamaldehyde as a solvent ([3]; solvent: cinnamaldehyde): > 10 % by weight
solubility in eugenol as a solvent [3]: > 10 % by weight
solubility in jasminealdehyde as a solvent ([3]; solvent: jasminealdehyde): > 10 % by weight
solubility in vitamin E acetate as a solvent [3]: < 1 % by weight

O=C(O)/C=C/c1ccc(O)c(O)c1 [caffeic acid, Caffeic acid]
mutagenicity of cigarette smoke condensate on addition of the substance [1]: reduction of the mutagenicity

CC1=C(/C=C/C(C)=C/C=C/C(C)=C/CO)C(C)(C)CCC1 [Vitamin A, retinol]
solubility in cinnamaldehyde as a solvent [3]: > 10 % by weight
solubility in jasminealdehyde as a solvent [3]: > 10 % by weight

C=CCc1ccc(O)c(OC)c1 [eugenol, Eugenol]
mutagenicity of cigarette smoke condensate on addition of the substance [1]: reduction of the mutagenicity
mutagenic effect of the smoke condensate (in words) [4]: decrease the mutagenic effect of the smoke condensate

CC1=C(/C=C/C(C)=C/C=C/C(C)=C/C=C/C=C(C)/C=C/C=C(C)/C=C/C2=C(C)CCCC2(C)C)C(C)(C)CCC1 [β-carotene]
solubility in cinnamaldehyde as a solvent ([3]; solvent: cinnamaldehyde): > 1 % by weight
solubility in eugenol as a solvent [3]: < 1 % by weight
solubility in jasminealdehyde as a solvent ([3]; solvent: jasminealdehyde): < 1 % by weight
solubility in vitamin E acetate as a solvent [3]: < 1 % by weight

COc1cc2ccc(=O)oc2cc1O [scopoletin, 7-hydroxy-6-methoxycoumarin]
mutagenicity of cigarette smoke condensate on addition of the substance [1]: reduction of the mutagenicity

Cc1c(C)c2c(c(C)c1O)CCC(C)(CCCC(C)CCCC(C)CCCC(C)C)O2 (stereo not drawn) [Vitamin E, α-tocopherol]
solubility in hardener triacetin [2]: > 10 % by weight
